Assay results published in patent US12018093B2, “Hemiasterlin derivatives and antibody-drug conjugates including same” (priority 2017, dated 2024).
Where “and” joins values, the source holds several entries; their conditions need not be identical. Equal entries are not always repeated. Entries after “also recorded” stand apart in the source; their conditions may differ. Where two headings read alike, the source gives them in different places.

Columns and labels:
SU-DHL-1 cells = test: Cellular toxicity test (1), CellTiter-Glo, SU-DHL-1; type: cell-based; details: Homo sapiens, 96 h, cultured 4 days, cell viability
Method: (§1) SU-DHL-1 cells (American Type Culture Collection, hereinafter, ATCC) and Karpas-299 cells (European Collection of Authenticated Cell Cultures, hereinafter, ECACC), which are human lymphoma cell lines, were cultured in RPMI 1640 (GIBCO) containing 10% fetal bovine serum (MP Biomedicals) (hereinafter, referred to as the “culture medium” in this test). SU-DHL-1 cells and Karpas-299 cells were prepared to be 2×10^6 cells/mL in the culture medium, and were added to a 96 well microplate for cell culturing in an amount of 50 μL for each well. Compounds of Examples or hemiasterlin 4 times diluted with the culture medium in 8 stages were added to the microplate in an amount of 50 μL for each well. To wells to which the test substance was not added, the culture medium was added in an amount of 50 μL for each well. These were cultured at 37 degree under 5% CO2 for 4 days. After culturing, the microplate was taken out from the incubator, and was left at rest at room temperature for 10 minutes. To each well, 50 μL of CellTiter-Glo Luminescent Cell Viability Assay (Promega) was added, and the resultant mixture was stirred. This mixture was incubated at a dark place for 20 minutes. Using a microplate luminometer, luminescence at each well was measured, thereby calculating the cell viability for each concentration of the test substance. From the cell viability, the IC50 value of the test substance was determined.
(§2) The IC50 value was calculated by the following formula: IC50(nM)=antilog(LOG10(a/b)×(e−d)/(c−d)+LOG10b) • a: concentration a of test substance • b: concentration b of test substance • c: cell viability upon adding test substance with concentration a • d: cell viability upon adding test substance with concentration b • e: intermediate value between maximum and minimum among cell viabilities upon • adding test substances with different concentrations (a and b are concentrations crossing the cell viability e, and a>b is indicated).
(§3) The cell viability at each concentration was calculated by the following formula: Cell Viability (%)=a′/b′×100 • a′: mean value of luminescence amount of wells to which test substance was added (n=6) • b′: mean value of luminescence amount of wells to which test substance was not added (n=6) • (n represents the number of evaluations performed per test substance concentration).

Karpas-299 cells = test: Cellular toxicity test (1), CellTiter-Glo, Karpas-299; type: cell-based; details: Homo sapiens, 96 h, cultured 4 days, cell viability
Method: as §1, §2, §3

SK-BR-3 cells = test: Cellular toxicity test (2), CellTiter-Glo, SK-BR-3; type: cell-based; details: Homo sapiens, 72 h, cultured 3 days, cell viability
Method: as §2, §3
SK-BR-3 cells (ATCC), which are a human breast cancer cell line, were cultured in McCoy's 5A (GIBCO) containing 10% fetal bovine serum (MP Biomedicals) (hereinafter, referred to as the “culture medium” in this test). SK-BR-3 cells were prepared to be 2×10^6 cells/mL in the culture medium, added to a 96 well microplate for cell culturing in an amount of 50 μL for each well, and cultured at 37 degree under 5% CO2 overnight, and then, compounds of Examples or hemiasterlin 4 times diluted with the culture medium in 8 stages were added to the microplate in an amount of 50 μL for each well. To wells to which the test substance was not added, the culture medium was added in an amount of 50 μL for each well. These were cultured at 37 degree under 5% CO2 for 3 days. After culturing, the microplate was taken out from the incubator, and was left at rest at room temperature for 10 minutes. 50 μL of CellTiter-Glo Luminescent Cell Viability Assay (Promega) was added, and the resultant mixture was stirred. This mixture was incubated at a dark place for 20 minutes. Using a microplate luminometer, luminescence at each well was measured, thereby calculating the cell viability for each concentration of the test substance. The IC50 value was calculated in accordance with the method described in Test Example 3.

in vitro = details: PAMPA, pH 7.4
Method: By the parallel artificial membrane permeability assay (PAMPA), the membrane permeability of compounds of Examples was examined as follows: To the donor plate, System solution (pION inc.) and GIT Lipid-0 (pION inc.) were added in an amount of 200 μL and 4 μL for each well, respectively. To the acceptor plate, Acceptor Sink Buffer (pION inc.) was added in an amount of 200 μL. Both plates were superposed and incubated at 37° C. for 4 hours, and then, UVs in the solutions on the side of acceptor and on the side of donor were measured with an UV plate reader (190 to 500 nm). Compounds with poor UV absorption were measured by LC-MS. The permeability coefficient Pe (10^−6 cm/sec) of the drug was calculated by the following formula.

[1] = Pharmacokinetic evaluation test using mice; type: in vivo; details: for half-life: single intravenous administration
Method: A pharmacokinetic evaluation test was performed by single intravenous administration of Example 4 at a dose of 1.0 mg/kg to mice. A calibration curve was made from measurements of Example 4 with known concentration, and by interpolating measurements of each specimen to this, the amount of the compound contained in unit volume of each plasma was calculated using LC-MS. Pharmacokinetics of compound 14 and hemiasterlin were similarly evaluated.
(n.d. in the tables means less than the detection limit value (0.5 ng/mL).)

porcine tubulin [2] = biological target: T1, porcine tubulin (Sus scrofa, UniProt P02550+P02554); test: Activity for inhibiting microtubule polymerization using porcine tubulins (1); type: biochemical; set-up: purchased Cytoskeleton Inc. BK006P; details: compound 0.91 μM; absorbance at 340 nm, 37° C.; FIG. 1 and FIG. 2
T1 sequence (P02554 whole entry): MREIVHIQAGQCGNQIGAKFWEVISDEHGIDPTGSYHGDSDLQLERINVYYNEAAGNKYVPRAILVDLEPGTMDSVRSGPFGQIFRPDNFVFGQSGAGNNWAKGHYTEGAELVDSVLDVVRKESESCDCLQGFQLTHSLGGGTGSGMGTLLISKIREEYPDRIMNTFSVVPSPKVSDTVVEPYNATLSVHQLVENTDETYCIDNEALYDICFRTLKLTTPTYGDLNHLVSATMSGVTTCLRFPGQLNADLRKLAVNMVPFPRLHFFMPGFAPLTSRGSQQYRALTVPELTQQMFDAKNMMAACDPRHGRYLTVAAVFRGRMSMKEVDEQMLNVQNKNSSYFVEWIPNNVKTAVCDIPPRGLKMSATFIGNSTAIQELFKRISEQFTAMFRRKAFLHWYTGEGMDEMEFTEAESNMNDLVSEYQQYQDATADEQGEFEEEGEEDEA
T1 sequence (P02550 whole entry): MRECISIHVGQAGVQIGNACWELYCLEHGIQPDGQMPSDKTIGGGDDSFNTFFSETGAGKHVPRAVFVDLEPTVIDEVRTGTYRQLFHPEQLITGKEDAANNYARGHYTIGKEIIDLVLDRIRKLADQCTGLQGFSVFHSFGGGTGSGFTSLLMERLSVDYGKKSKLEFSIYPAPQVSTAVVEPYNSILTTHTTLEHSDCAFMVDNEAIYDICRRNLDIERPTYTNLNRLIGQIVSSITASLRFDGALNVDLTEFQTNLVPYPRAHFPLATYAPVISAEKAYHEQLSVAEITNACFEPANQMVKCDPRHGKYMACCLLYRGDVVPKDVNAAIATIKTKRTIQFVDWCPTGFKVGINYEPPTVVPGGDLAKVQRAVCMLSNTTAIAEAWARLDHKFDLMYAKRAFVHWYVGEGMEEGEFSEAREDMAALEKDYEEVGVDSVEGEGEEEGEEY

porcine tubulin [3] = biological target: T1, porcine tubulin; test: Activity for inhibiting microtubule polymerization using porcine tubulins (2), microtubule polymerization rate; details: 60 minutes after assay initiation; relative to wells without compound; lower = stronger inhibition
[4] = mouse, plasma, iv, 1 mg/kg, single intravenous 1.0 mg/kg, 0.5 hr, read-out: Blood concentration, mean value
[5] = mouse, plasma, iv, 1 mg/kg, single intravenous 1.0 mg/kg, 2 hr, read-out: Blood concentration, individual mice 1-3
[6] = mouse, plasma, iv, 1 mg/kg, single intravenous 1.0 mg/kg, 2 hr, read-out: Blood concentration, mean value
[7] = single intravenous 1.0 mg/kg, 0.5 hr, 1 mg/kg
[8] = single intravenous 1.0 mg/kg, 2 hr, 1 mg/kg
[9] = single intravenous 1.0 mg/kg, 6 hr
[10] = single intravenous 1.0 mg/kg, 24 hr

CN[C@H](C(=O)N[C@H](C(=O)N(C)[C@H](/C=C(\C)C(=O)N[C@H](CCC(=O)O)C(=O)O)C(C)C)C(C)(C)C)C(C)(C)c1cn(C)c2ccccc12 [Example 4]
IC50 (SU-DHL-1 cells): 250 nM
IC50 (Karpas-299 cells): 291 nM
IC50 (SK-BR-3 cells): 193 nM
Papp (in vitro): < 0.1 ×10⁻⁶ cm/s
half-life ([1]; mouse, plasma, 1 mg/kg): < 0.5 h
concentration at 0.5 hr [1, 4]: 13.7 ng/mL
concentration at 2 hr [1, 5]: 0.7 ng/mL
concentration at 2 hr [1, 6]: 0.8 ng/mL
Blood concentration, individual mice 1-3 [1, 7]: 10.3 ng/mL and 10.2 ng/mL and 20.6 ng/mL
Blood concentration, individual mice 1-3 [1, 8]: 1.0 ng/mL and 0.7 ng/mL
Blood concentration, individual mice 1-3 [1, 9]: n.d. (less than the detection limit value (0.5 ng/mL))
Blood concentration, mean value [1, 9]: n.d. (less than the detection limit value (0.5 ng/mL))
Blood concentration, individual mice 1-3 [1, 10]: n.d. (less than the detection limit value (0.5 ng/mL))
Blood concentration, mean value [1, 10]: n.d. (less than the detection limit value (0.5 ng/mL))
Blood concentration of Example 4 detected as metabolite of Example 14 ([1]; single intravenous administration of Example 14, 6 hr, animal 1): n.d. (less than the detection limit value (0.5 ng/mL))
Blood concentration of Example 4 detected as metabolite of Example 14 ([1]; single intravenous administration of Example 14, 6 hr, animal 2): n.d. (less than the detection limit value (0.5 ng/mL))
Blood concentration of Example 4 detected as metabolite of Example 14 ([1]; single intravenous administration of Example 14, 6 hr, animal 3): n.d. (less than the detection limit value (0.5 ng/mL))
Blood concentration of Example 4 detected as metabolite of Example 14, mean ([1]; single intravenous administration of Example 14, 6 hr): n.d. (less than the detection limit value (0.5 ng/mL))
Blood concentration of Example 4 detected as metabolite of Example 14 ([1]; single intravenous administration of Example 14, 24 hr, animal 1): n.d. (less than the detection limit value (0.5 ng/mL))
Blood concentration of Example 4 detected as metabolite of Example 14 ([1]; single intravenous administration of Example 14, 24 hr, animal 2): n.d. (less than the detection limit value (0.5 ng/mL))
Blood concentration of Example 4 detected as metabolite of Example 14 ([1]; single intravenous administration of Example 14, 24 hr, animal 3): n.d. (less than the detection limit value (0.5 ng/mL))
Blood concentration of Example 4 detected as metabolite of Example 14, mean ([1]; single intravenous administration of Example 14, 24 hr): n.d. (less than the detection limit value (0.5 ng/mL))
activity for inhibiting microtubule polymerization (porcine tubulin [2]): exhibited activities for inhibiting microtubule polymerization; also recorded: exhibited a stronger polymerization inhibitory activity

CCOC(=O)CC[C@@H](NC(=O)/C(C)=C/[C@H](C(C)C)N(C)C(=O)[C@@H](NC(=O)[C@@H](NC)C(C)(C)c1cn(C)c2ccccc12)C(C)(C)C)C(=O)OCC [Example 9]
activity for inhibiting microtubule polymerization (porcine tubulin [2]): exhibited activities for inhibiting microtubule polymerization

CN[C@H](C(=O)N[C@H](C(=O)N(C)[C@H](/C=C(\C)C(=O)N[C@@H](CC(=O)O)C(=O)O)C(C)C)C(C)(C)C)C(C)(C)c1cn(C)c2ccccc12 [Example 11]
IC50 (SU-DHL-1 cells): 158 nM
IC50 (Karpas-299 cells): 220 nM
IC50 (SK-BR-3 cells): 157 nM
Microtubule polymerization rate (%) (porcine tubulin [3]): 5%

CN[C@H](C(=O)N[C@H](C(=O)N(C)[C@H](/C=C(\C)C(=O)N[C@@H](CS)C(=O)OC)C(C)C)C(C)(C)C)C(C)(C)c1cn(C)c2ccccc12 [Example 22]
IC50 (SU-DHL-1 cells): 1.22 nM
IC50 (SK-BR-3 cells): 1.92 nM

CN[C@H](C(=O)N[C@H](C(=O)N(C)[C@H](/C=C(\C)C(=O)N[C@@H](CS)C(=O)O)C(C)C)C(C)(C)C)C(C)(C)c1cn(C)c2ccccc12 [Example 23]
IC50 (SU-DHL-1 cells): > 50 nM
IC50 (SK-BR-3 cells): 143 nM
activity for inhibiting microtubule polymerization (porcine tubulin [2]): exhibited activities for inhibiting microtubule polymerization

CN[C@H](C(=O)N[C@H](C(=O)N(C)[C@H](/C=C(\C)C(=O)O)C(C)C)C(C)(C)C)C(C)(C)c1cn(C)c2ccccc12 [Hemiasterlin, hemiasterlin]
IC50 (Karpas-299 cells): 0.032 nM
IC50 (SK-BR-3 cells): 0.088 nM
half-life ([1]; mouse, plasma, 1 mg/kg): < 13.1 h
concentration at 0.5 hr [1, 4]: 65 ng/mL
concentration at 2 hr [1, 5]: 25.1 ng/mL
concentration at 2 hr [1, 6]: 25.8 ng/mL
concentration at 6 hr ([1]; mouse, plasma, iv, 1 mg/kg, single intravenous 1.0 mg/kg, 6 hr, read-out: Blood concentration, individual mice 1-3): 18.9 ng/mL
concentration at 6 hr ([1]; mouse, plasma, iv, 1 mg/kg, single intravenous 1.0 mg/kg, 6 hr, read-out: Blood concentration, mean value): 22.4 ng/mL
concentration at 24 hr ([1]; mouse, plasma, iv, 1 mg/kg, single intravenous 1.0 mg/kg, 24 hr, read-out: Blood concentration, mean value): 8.3 ng/mL
Blood concentration, individual mice 1-3 [1, 7]: 54.5 ng/mL and 99.8 ng/mL and 40.6 ng/mL
Blood concentration, individual mice 1-3 [1, 8]: 22.2 ng/mL and 30.20 ng/mL
Blood concentration, individual mice 1-3 ([1]; single intravenous 1.0 mg/kg, 6 hr, 1 mg/kg): 18.2 ng/mL and 30.2 ng/mL
Blood concentration, individual mice 1-3 ([1]; single intravenous 1.0 mg/kg, 24 hr, 1 mg/kg): 2.4 ng/mL and 12.8 ng/mL and 9.5 ng/mL
Microtubule polymerization rate (%) (porcine tubulin [3]): 3%
